Laboratory results reported in patent US12662507B2, “Cytosine-type bridged nucleoside amidite crystals and method for producing same” (Yamasa Corporation, priority 2020, dated 2026).

Assay: Stability test: storage at 50° C. in tightly sealed glass vial, HPLC purity
Type: physicochemical
Method: As used herein, the term “decomposition degree” is defined as a value obtained by subtracting a […] when the stability test is performed for a certain period of time under the following conditions. The purity can be determined by HPLC. A higher decomposition degree means that the decomposition progressed and the purity decreased.
(§1) • Temperature: 50° C.; • Storage conditions: 20 mg of crystal is placed in a glass vial and stored in a tightly sealed state; (HPLC Conditions) • Column: YMC-Triart C18, 150×4.6 mm I.D. (manufactured by YMC); • Eluent: 5 mM triethylammonium acetate (pH 7.0) containing 80 vol % acetonitrile; and • Detection method: detection by UV 280 nm.
as §1, with “each of crystals A to C or amorphous form was” for “crystal is”, “state; and • Sampling time: after 1, 2, 3, 4, 6, and 20 (days), each specimen was sampled and subjected to HPLC analysis;” for “state;”, “YMC)” for “YMC);”
The leftmost column in the table indicates the number of elapsed days, and the column “Example 1 (Crystal A)” indicates the HPLC purity of the crystal A of the 5-methylcytosine-type bridged nucleoside amidite obtained in Example 1 (R^1=a benzamido group, R^2=a methyl group, R^3=a dimethoxytrityl group) after the corresponding number of elapsed days, and the column “Example 2 (crystal B)” indicates the HPLC purity of the crystal B of the 5-methylcytosine-type bridged nucleoside amidite obtained in Example 2 (R^1=a benzamido group, R^2=a methyl group, R^3=a dimethoxytrityl group) after the corresponding number of elapsed days, and the column “Example 3 (Crystal C) indicates the HPLC purity of the crystal C of 5-methylcytosine-type bridged nucleoside amidite obtained in Example 3 (R^1=a benzamido group, R^2=a methyl group, R^3=a dimethoxytrityl group) after the corresponding number of elapsed days, and the column “Control” indicates the HPLC purity of the amorphous form used as a control after the corresponding number of elapsed days. In the table, the cells marked by “-” indicate that no measurement was performed.

[1] = HPLC purity on day 0 minus HPLC purity after 20 days at 50° C.
[2] = after 1 day at 50° C., sealed glass vial
[3] = after 2 days at 50° C., sealed glass vial
[4] = after 3 days at 50° C., sealed glass vial
[5] = after 6 days at 50° C., sealed glass vial
[6] = after 20 days at 50° C., sealed glass vial
[7] = day 0 (start of stability test at 50° C.)
[8] = after 4 days at 50° C., sealed glass vial

SMILES | Decomposition Degree [1] | HPLC purity [2] [%] | HPLC purity [3] [%] | HPLC purity [4] [%] | HPLC purity [5] [%] | HPLC purity [6] [%] | HPLC purity [7] [%] | Decomposition Degree (stored at 50° C. for 20 days, in HPLC purity) [%] | HPLC purity [8] [%]
COc1ccc(C(OCC23COC(C(n4cc(C)c(NC(=O)c5ccccc5)nc4=O)O2)C3OP(OCCC#N)N(C(C)C)C(C)C)(c2ccccc2)c2ccc(OC)cc2)cc1 (centres unmarked) [Control, N^4-benzoyl-5′-O-(4,4′-dimethoxytrityl)-2′-O-4′-C-methylene-5-methylcytidine-3′-O—[O-(2-cyanoethyl)-N,N-diisopropylphosphoramidite], reference compound] | 6.6 Δ % | 98.2 | 97.9 | 97.9 | 96.9 | 92.1 | 98.7 | 6.6 | 
COc1ccc(C(OCC23COC(C(n4cc(C)c(NC(=O)c5ccccc5)nc4=O)O2)C3OP(OCCC#N)N(C(C)C)C(C)C)(c2ccccc2)c2ccc(OC)cc2)cc1 (centres unmarked) [Example 1, N^4-benzoyl-5′-O-(4,4′-dimethoxytrityl)-2′-O-4′-C-methylene-5-methylcytidine-3′-O—[O-(2-cyanoethyl)-N,N-diisopropylphosphoramidite]] | 0.7 Δ % | 98.4 | 98.1 | 98.3 | 98.1 | 98.1 | 98.8 |  | 
COc1ccc(C(OCC23COC(C(n4cc(C)c(NC(=O)c5ccccc5)nc4=O)O2)C3OP(OCCC#N)N(C(C)C)C(C)C)(c2ccccc2)c2ccc(OC)cc2)cc1 (centres unmarked) [Example 2, N^4-benzoyl-5′-O-(4,4′-dimethoxytrityl)-2′-O-4′-C-methylene-5-methylcytidine-3′-O—[O-(2-cyanoethyl)-N,N-diisopropylphosphoramidite]] | 0.4 Δ % | 98.7 | 98.6 |  | 98.5 | 98.3 | 98.7 |  | 98.6
COc1ccc(C(OCC23COC(C(n4cc(C)c(NC(=O)c5ccccc5)nc4=O)O2)C3OP(OCCC#N)N(C(C)C)C(C)C)(c2ccccc2)c2ccc(OC)cc2)cc1 (centres unmarked) [Example 3, N^4-benzoyl-5′-O-(4,4′-dimethoxytrityl)-2′-O-4′-C-methylene-5-methylcytidine-3′-O—[O-(2-cyanoethyl)-N,N-diisopropylphosphoramidite]] | 0.5 Δ % | 98.7 | 98.6 |  | 98.5 | 98.1 | 98.6 |  | 98.5
